Key:
[1] = clinical use; cited from earlier work
[2] = test system: contact sensitivity response to 2,4-dinitrofluorobenzene (DNFB) in Balb/c female mice; assay: Contact sensitivity response to DNFB in mice (delayed-type hypersensitivity, ear swelling); format: in vivo
Protocol: Balb/c female mice (.perspectiveto. 20 g; Charles River) were sensitized on the shaved abdomen with 25 μl of 0.5% 2,4-dinitrofluorobenzene (DNFB, Eastman Kodak Co.) in a vehicle of 4:1 acetone:olive oil on days 0 and 1. Mice were ear challenged with 20 μl of 0.2% DNFB in a vehicle of 4:1 acetone:olive oil on day-5. An identical segment of the ear was measured immediately before challenge and 24 hours later with an engineer's micrometer. Ear swelling was expressed as the difference in ear thickness before and after challenge in units of 10^-4 inches ± SEM. Percent suppression was calculated as: [formula] Compounds were administered orally from day-2 through day-6 and were prepared in 0.25% Methocel® (Dow Chemical Co.). Control animals received only vehicle (0.25% Methocel®). Negative controls were not sensitized on days 0 and 1 but were ear challenged on day-5. Ten mice were used per group.
Contact sensitivity to DNFB is a form of delayed-type hypersensitivity which has been extensively studied to gain an understanding of the regulation of immunologic processes (Claman et al. (1980), Immunological Rev. 50:105-132). This reaction is mediated by T lymphocytes that become sensitized to antigen by proliferating and developing into mature effector cells (Claman et al. (1980), Immunological Rev. 50:105-132). This cell-mediated immune response (T-cell mediated immunity) is central to many disease states such as organ transplantation rejection and graft versus host disease (Benacerraf and Unanue (1979), Textbook of Immunology, Williams & Wilkins Co.; Eisen (1980), Immunology, An Introduction to Molecular and Cellular Principles of the Immune Responses, Harper & Row, Inc.; Loveland and McKenzie (1982), Immunology 46:313-320; Gallin et al. (1988), Inflammation, Basic Principles and Clinical Correlates, Raven Press). […]

[3] = test system: human mixed lymphocyte reaction (peripheral blood mononuclear cells, PBMC); assay: Human mixed lymphocyte reaction (3H-thymidine incorporation); format: cell-based
Protocol: Blood was obtained by venipuncture from two nonrelated human donors. Peripheral blood mononuclear cells (PBMC) were isolated from these samples by using the Leuco Prep procedure (Becton-Dickinson). PBMC were washed twice in phosphate buffered saline (without calcium and magnesium) and the separate cell isolations were adjusted to the appropriate concentrations in media (RPMI 1640) supplemented with 10% human AB serum and […] gentamicin. Cells from donor A (2×10^5) were incubated with cells from donor B (2×10^5) in 96 well round bottom microliter plates at 37° C., 5% CO2 for 6 days. Eighteen hours prior to harvesting cells from the plates, all wells were pulsed with 1 μCi of ^3 H-thymidine. Cells from the plates were harvested on day-6 and 3H-thymidine incorporation was determined using a scintillation counter.
The human mixed lymphocyte reaction model, is an in vitro model for transplantation rejection.

SMILES	Significant clinically observed toxicities [1]	% Suppression ([2]; 20.0 mg/kg orally, day-2 through day-6, of ear swelling) [%]	Ear Swelling (increase in ear thickness from day 5 to day 6) ([2]; 20.0 mg/kg orally, day-2 through day-6, units ± SEM, ten mice per group, 24 hours after challenge)	immunosuppressive activity (in words) ([2]; statement in words)	IC50 ([3]; Homo sapiens, Lymphocyte, 6 days incubation, 3H-thymidine pulse 18 hours prior to harvest) [µM]	human mixed lymphocyte reaction (in words) ([3]; statement in words, compared with CSA)
Cn1cnc([N+](=O)[O-])c1Sc1ncnc2nc[nH]c12 [azathioprine]	hepatoxicity	–	–	–	–	–
O=C([O-])c1c2c(nc3ccc(F)cc13)-c1ccc(-c3ccccc3)cc1CC2.[Na+] [Example 12, 5,6-dihydro-9-fluoro-3-phenylbenz-[c]acridine-7-carboxylic acid, sodium salt]	–	99.75	2.44 ± 1.62 10^-4 inches	have immunosuppressive activity	0.065	comparable to CSA
